# Data: article PMC13395416 (PLOS Pathogens, 2026)
# Ends that are not written are not given here. * marks the point of attachment. Biotin = O=C1N[C@H]2[C@H](CS[C@H]2CCCCC(=O)*)N1
# How the values were obtained:
# SteC1-457 = molecular target: T1, SteC1-457 (Salmonella enterica, UniProt D0ZIB5); settings: 5 μM MYL12A, 100 μM ATP with 20 kBq [γ-32P]ATP, 100 nM kinase, 10 mM MgCl2, pH 7.5, 30 °C
# T1 construct: gene steC
# [1] = molecular target: SteC_(210-429) WT, minimal active kinase domain (Salmonella Typhimurium strain 14028s, UniProt D0ZIB5 210-429); assay: BLI; settings: both partners purified
# SteC_(210-429) WT, minimal active kinase domain, sequence (D0ZIB5 210-429): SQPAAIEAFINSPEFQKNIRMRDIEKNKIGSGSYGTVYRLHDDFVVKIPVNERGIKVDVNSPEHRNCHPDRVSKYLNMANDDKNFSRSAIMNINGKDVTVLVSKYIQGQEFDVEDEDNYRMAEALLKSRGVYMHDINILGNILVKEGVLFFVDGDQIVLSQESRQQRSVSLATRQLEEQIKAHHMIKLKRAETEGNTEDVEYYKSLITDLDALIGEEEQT
# T1 sequence (D0ZIB5 whole entry): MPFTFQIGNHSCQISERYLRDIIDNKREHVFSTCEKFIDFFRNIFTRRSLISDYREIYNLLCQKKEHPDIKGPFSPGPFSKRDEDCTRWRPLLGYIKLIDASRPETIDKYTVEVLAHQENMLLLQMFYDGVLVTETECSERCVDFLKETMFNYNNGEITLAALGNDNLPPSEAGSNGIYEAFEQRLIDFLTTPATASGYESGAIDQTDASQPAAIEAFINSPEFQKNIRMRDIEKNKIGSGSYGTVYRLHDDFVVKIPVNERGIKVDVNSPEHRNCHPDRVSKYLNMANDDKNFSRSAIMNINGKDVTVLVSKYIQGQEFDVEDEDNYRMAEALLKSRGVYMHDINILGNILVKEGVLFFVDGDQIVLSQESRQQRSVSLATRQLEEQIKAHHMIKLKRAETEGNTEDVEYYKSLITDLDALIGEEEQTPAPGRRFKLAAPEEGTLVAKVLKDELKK
Molecule,"radioactive kinase assay, SDS-PAGE autoradiography (SteC1-457)",Kd [1]
Nc1ncnc2c1ncn2[C@@H]1O[C@H](COP(=O)(O)OP(=O)(O)OP(=O)(O)O)[C@@H](O)[C@H]1O [ATP],SteC1-457 mediated phosphorylation of MYL12A,
"Biotin-KGPPSSVPKSRHLTIKLTPAHSRK (peptide, UniProt O95466 190-213, looked up) [N-terminally biotinylated FMNL1 peptide (K190-K213)]",,7.9 µM
